Results reported in the supplement of paper PMC11061612.

What was measured:
Carboplatin = compound: C1CC(C1)(C(=O)[O-])C(=O)[O-].N.N.[Pt+2] [Carboplatin]; conditions: max 10 µM
Outline: (§1)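 Plates with 1536 wells received cancer cell lines in 7.5 μl of DMEM/F12 or RPMI containing 10% FBS. After 24 hours at 37°C and 5% CO2, cells were dosed for 72 hours with final DMSO typically 0.2%, and viability was read by CellTiter-Glo 2.0 luminescence scaled between blank-well and DMSO-well means. The single-agent IC50 was taken from a logistic fit of the dose responses made with a non-linear mixed effects model, that logistic curve having two parameters.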

AZD5363 = compound: C1CN(CCC1(C(=O)N[C@@H](CCO)C2=CC=C(C=C2)Cl)N)C3=NC=NC4=C3C=CN4 [AZD5363]; conditions: max 10 µM
Outline: as §1

AZD1775 = compound: C=CCn1c(=O)c2cnc(Nc3ccc(N4CCN(C)CC4)cc3)nc2n1-c1cccc(C(C)(C)O)n1 [AZD1775]; conditions: max 3 µM
Outline: as §1

Trametinib = compound: CC(=O)Nc1cccc(-n2c(=O)n(C3CC3)c(=O)c3c(Nc4ccc(I)cc4F)n(C)c(=O)c(C)c32)c1 [Trametinib]; conditions: max 1 µM
Outline: as §1

Paclitaxel = compound: CC(=O)O[C@H]1C(=O)[C@@]2(C)[C@H]([C@H](OC(=O)c3ccccc3)[C@]3(O)C[C@H](OC(=O)[C@H](O)[C@@H](NC(=O)c4ccccc4)c4ccccc4)C(C)=C1C3(C)C)[C@]1(OC(C)=O)CO[C@@H]1C[C@@H]2O [Paclitaxel]; conditions: max 3 µM
Outline: as §1

Palbociclib = compound: CC(=O)c1c(C)c2cnc(Nc3ccc(N4CCNCC4)cn3)nc2n(C2CCCC2)c1=O [Palbociclib]; conditions: max 10 µM
Outline: as §1

AZD1390 = compound: CC(C)n1c(=O)n(C)c2cnc3cc(F)c(-c4ccc(OCCCN5CCCCC5)nc4)cc3c21 [AZD1390]; conditions: max 0.3 µM
Outline: as §1

Venetoclax = compound: CC1(C)CCC(CN2CCN(c3ccc(C(=O)NS(=O)(=O)c4ccc(NCC5CCOCC5)c([N+](=O)[O-])c4)c(Oc4cnc5[nH]ccc5c4)c3)CC2)=C(c2ccc(Cl)cc2)C1 [Venetoclax]; conditions: max 1 µM
Outline: as §1

Dasatinib = compound: CC1=C(C(=CC=C1)Cl)NC(=O)C2=CN=C(S2)NC3=CC(=NC(=N3)C)N4CCN(CC4)CCO [Dasatinib]; conditions: max 2 µM
Outline: as §1

SG3199 = compound: CC1=CN2[C@@H](C1)C=NC3=CC(=C(C=C3C2=O)OC)OCCCCCOC4=C(C=C5C(=C4)N=C[C@@H]6CC(=CN6C5=O)C)OC [SG3199]; conditions: max 0.001 µM
Outline: as §1

AZD2811 = compound: CCN(CCO)CCCOc1ccc2c(Nc3cc(CC(=O)Nc4cccc(F)c4)[nH]n3)ncnc2c1 [AZD2811]; conditions: max 1 µM
Outline: as §1

SN-38 = compound: CCc1c2c(nc3ccc(O)cc13)-c1cc3c(c(=O)n1C2)COC(=O)[C@]3(O)CC [SN-38]; conditions: max 0.3 µM
Outline: as §1

AZD0156 = compound: CN(C)CCCOc1ccc(-c2ccc3ncc4c(c3c2)n(C2CCOCC2)c(=O)n4C)cn1 [AZD0156]; conditions: max 3 µM
Outline: as §1

AZD4320 = compound: CN(CC[C@H](CSC1=CC=CC=C1)NC2=C(C=C(C=C2)S(=O)(=O)NC(=O)C3=CC=C(C=C3)N4CCC(CC4)[C@H](C5=CC=CC=C5C6=CC=C(C=C6)Cl)O)S(=O)(=O)C(F)(F)F)CCO [AZD4320]; conditions: max 1 µM
Outline: as §1

Alisertib = compound: COc1cc(Nc2ncc3c(n2)-c2ccc(Cl)cc2C(c2c(F)cccc2OC)=NC3)ccc1C(=O)O [Alisertib]; conditions: max 10 µM
Outline: as §1

Etoposide = compound: COc1cc([C@@H]2c3cc4c(cc3[C@@H](O[C@@H]3O[C@@H]5CO[C@@H](C)O[C@H]5[C@H](O)[C@H]3O)[C@H]3COC(=O)[C@H]23)OCO4)cc(OC)c1O [Etoposide]; conditions: max 10 µM
Outline: as §1

Gefitinib = compound: COc1cc2ncnc(Nc3ccc(F)c(Cl)c3)c2cc1OCCCN1CCOCC1 [Gefitinib]; conditions: max 10 µM
Outline: as §1

Prexasertib = compound: COc1cccc(OCCCN)c1-c1cc(Nc2cnc(C#N)cn2)n[nH]1 [Prexasertib]; conditions: max 1 µM
Outline: as §1

Doxorubicin = compound: COc1cccc2c1C(=O)c1c(O)c3c(c(O)c1C2=O)C[C@@](O)(C(=O)CO)C[C@@H]3O[C@H]1C[C@H](N)[C@H](O)[C@H](C)O1 [Doxorubicin]; conditions: max 1 µM
Outline: as §1

AZD5153 = compound: COc1nnc2ccc(N3CCC(c4ccc(OCCN5CCN(C)C(=O)[C@H]5C)cc4)CC3)nn12 [AZD5153]; conditions: max 1 µM
Outline: as §1

Lapatinib = compound: CS(=O)(=O)CCNCc1ccc(-c2ccc3ncnc(Nc4ccc(OCc5cccc(F)c5)c(Cl)c4)c3c2)o1 [Lapatinib]; conditions: max 10 µM
Outline: as §1

AZD8186 = compound: C[C@@H](Nc1cc(F)cc(F)c1)c1cc(C(=O)N(C)C)cc2c(=O)cc(N3CCOCC3)oc12 [AZD8186]; conditions: max 10 µM
Outline: as §1

Crizotinib = compound: C[C@@H](Oc1cc(-c2cnn(C3CCNCC3)c2)cnc1N)c1c(Cl)ccc(F)c1Cl [Crizotinib]; conditions: max 10 µM
Outline: as §1

Savolitinib = compound: C[C@@H](c1ccc2nccn2c1)n1nnc2ncc(-c3cnn(C)c3)nc21 [Savolitinib]; conditions: max 1 µM
Outline: as §1

AZD6738 = compound: C[C@@H]1COCCN1C2=NC(=NC(=C2)C3(CC3)[S@](=N)(=O)C)C4=C5C=CNC5=NC=C4 [AZD6738]; conditions: max 10 µM
Outline: as §1

AZD5991 = compound: Cc1c2c(nn1C)CSCc1cc(n(C)n1)CSc1cc(c3ccccc3c1)OCCCc1c(C(=O)O)n(C)c3c-2c(Cl)ccc13 [AZD5991]; conditions: max 1 µM
Outline: as §1

AZD7648 = compound: Cc1cc2ncnn2cc1Nc1ncc2c(n1)n(C1CCOCC1)c(=O)n2C [AZD7648]; conditions: max 10 µM
Outline: as §1

Taselisib = compound: Cc1nc(-c2cn3c(n2)-c2ccc(-c4cnn(C(C)(C)C(N)=O)c4)cc2OCC3)n(C(C)C)n1 [Taselisib]; conditions: max 10 µM
Outline: as §1

Selumetinib = compound: Cn1cnc2c(F)c(Nc3ccc(Br)cc3Cl)c(C(=O)NOCCO)cc21 [Selumetinib]; conditions: max 10 µM
Outline: as §1

SRA737 = compound: N#Cc1cnc(Nc2cc(NC[C@H]3CNCCO3)c(C(F)(F)F)cn2)cn1 [SRA737]; conditions: max 10 µM
Outline: as §1

MK-2206 = compound: NC1(c2ccc(-c3nc4ccn5c(=O)[nH]nc5c4cc3-c3ccccc3)cc2)CCC1 [MK-2206]; conditions: max 10 µM
Outline: as §1

Gemcitabine = compound: Nc1ccn([C@@H]2O[C@H](CO)[C@@H](O)C2(F)F)c(=O)n1 [Gemcitabine]; conditions: max 0.3 µM
Outline: as §1

[1] = compound: O=C(Nc1ccc2[nH]nc(-c3ccncc3)c2c1)[C@@H]1CCN(CC(=O)N2CCN(c3ccc(-c4ncccn4)cc3)CC2)C1; conditions: max 5 µM
Outline: as §1

Olaparib = compound: O=C(c1cc(Cc2n[nH]c(=O)c3ccccc23)ccc1F)N1CCN(C(=O)C2CC2)CC1 [Olaparib]; conditions: max 10 µM
Outline: as §1

5-Fluorouracil = compound: O=c1[nH]cc(F)c(=O)[nH]1 [5-Fluorouracil]; conditions: max 20 µM
Outline: as §1

VAL (B-Cell Non-Hodgkin's Lymphoma)
IC50, cell viability 72 h (Carboplatin): > 10000 nM
IC50, cell viability 72 h (AZD5363): 5130 nM
IC50, cell viability 72 h (AZD1775): 416 nM
IC50, cell viability 72 h (Trametinib): > 1000 nM
IC50, cell viability 72 h (Paclitaxel): 57.3 nM
IC50, cell viability 72 h (Palbociclib): 2660 nM
IC50, cell viability 72 h (AZD1390): > 300 nM
IC50, cell viability 72 h (Venetoclax): 31.5 nM
IC50, cell viability 72 h (Dasatinib): 91.9 nM
IC50, cell viability 72 h (SG3199): > 1 nM
IC50, cell viability 72 h (AZD2811): 141 nM
IC50, cell viability 72 h (SN-38): 1.77 nM
IC50, cell viability 72 h (AZD0156): > 3000 nM
IC50, cell viability 72 h (AZD4320): 36.5 nM
IC50, cell viability 72 h (Alisertib): 60.6 nM
IC50, cell viability 72 h (Etoposide): 261 nM
IC50, cell viability 72 h (Gefitinib): > 10000 nM
IC50, cell viability 72 h (Prexasertib): 6.12 nM
IC50, cell viability 72 h (Doxorubicin): 28 nM
IC50, cell viability 72 h (AZD5153): 61.8 nM
IC50, cell viability 72 h (Lapatinib): > 10000 nM
IC50, cell viability 72 h (AZD8186): 2450 nM
IC50, cell viability 72 h (Crizotinib): 4620 nM
IC50, cell viability 72 h (Savolitinib): > 1000 nM
IC50, cell viability 72 h (AZD6738): 1030 nM
IC50, cell viability 72 h (AZD5991): 446 nM
IC50, cell viability 72 h (AZD7648): 8520 nM
IC50, cell viability 72 h (Taselisib): 2280 nM
IC50, cell viability 72 h (Selumetinib): > 10000 nM
IC50, cell viability 72 h (SRA737): 1470 nM
IC50, cell viability 72 h (MK-2206): 1870 nM
IC50, cell viability 72 h (Gemcitabine): 8.94 nM
IC50, cell viability 72 h [1]: > 5000 nM
IC50, cell viability 72 h (Olaparib): 8570 nM
IC50, cell viability 72 h (5-Fluorouracil): > 20000 nM

PANC-03-27 (Pancreatic Carcinoma)
IC50, cell viability 72 h (Carboplatin): > 10000 nM
IC50, cell viability 72 h (AZD5363): > 10000 nM
IC50, cell viability 72 h (AZD1775): 184 nM
IC50, cell viability 72 h (Trametinib): 271 nM
IC50, cell viability 72 h (Paclitaxel): 214 nM
IC50, cell viability 72 h (Palbociclib): > 10000 nM
IC50, cell viability 72 h (AZD1390): > 300 nM
IC50, cell viability 72 h (Venetoclax): > 1000 nM
IC50, cell viability 72 h (Dasatinib): 1760 nM
IC50, cell viability 72 h (SG3199): > 1 nM
IC50, cell viability 72 h (AZD2811): > 1000 nM
IC50, cell viability 72 h (SN-38): 49.8 nM
IC50, cell viability 72 h (AZD0156): > 3000 nM
IC50, cell viability 72 h (AZD4320): > 1000 nM
IC50, cell viability 72 h (Alisertib): > 10000 nM
IC50, cell viability 72 h (Etoposide): > 10000 nM
IC50, cell viability 72 h (Gefitinib): > 10000 nM
IC50, cell viability 72 h (Prexasertib): 7.87 nM
IC50, cell viability 72 h (Doxorubicin): > 1000 nM
IC50, cell viability 72 h (AZD5153): > 1000 nM
IC50, cell viability 72 h (Lapatinib): > 10000 nM
IC50, cell viability 72 h (AZD8186): > 10000 nM
IC50, cell viability 72 h (Crizotinib): > 10000 nM
IC50, cell viability 72 h (Savolitinib): > 1000 nM
IC50, cell viability 72 h (AZD6738): 2570 nM
IC50, cell viability 72 h (AZD5991): > 1000 nM
IC50, cell viability 72 h (AZD7648): > 10000 nM
IC50, cell viability 72 h (Taselisib): 4600 nM
IC50, cell viability 72 h (Selumetinib): > 10000 nM
IC50, cell viability 72 h (SRA737): 3400 nM
IC50, cell viability 72 h (MK-2206): > 10000 nM
IC50, cell viability 72 h (Gemcitabine): 183 nM
IC50, cell viability 72 h [1]: 3080 nM
IC50, cell viability 72 h (Olaparib): > 10000 nM
IC50, cell viability 72 h (5-Fluorouracil): > 20000 nM
